Patent publication US10590422B2, “Anticancer therapeutic intervention” (PHYZAT BIOPHARMACEUTICALS, LDA., priority 2017, dated 2020)

Legend:
ASCT2 mRNA [1] = experiment: ASCT2 gene expression (RT-qPCR, relative to GAPDH) after ASCT2 gene silencing in SK-HEP-1 cells; type: cell-based, human; settings: at 24 h; for ASCT2 mRNA relative abundance: liver carcinoma SK-HEP-1 cells, 10 nM siRNA, treatment 6 h, 0.5% Lipofectamine 2000, FIG. 4B
Protocol: (§1) SK-HEP-1, T24, HT-1080 and HCT-116 cell lines were maintained in a humidified atmosphere of 5% CO2 at 37° C. SK-HEP-1 cells were grown in RPMI-1640 (Sigma, St. Louis, Mo.) supplemented with 20% fetal bovine serum (FBS) (Gibco, UK), 100 U/mL penicillin G, 0.25 μg/mL amphotericin B, 100 μg/mL streptomycin (Gibco, UK), 25 mM sodium bicarbonate (Merck, Germany) and 25 mM N-2-hydroxyethylpiperazine-N′-2-ethanosulfonic acid (HEPES) (Sigma, St. Louis, Mo.). T24 and HT-1080 cells were grown, respectively, in Dulbecco's Modified Eagle's Medium (DMEM)—high glucose (Sigma, St. Louis, Mo.) and DMEM—low glucose (Sigma, St. Louis, Mo.), supplemented with 10% FBS (Gibco, UK), 100 U/mL penicillin G, 0.25 μg/mL amphotericin B, 100 μg/mL streptomycin (Gibco, UK), 25 mM sodium bicarbonate (Merck, Germany) and 25 mM HEPES (Sigma, St. Louis, Mo.). HCT-116 cells were grown in McCoy's 5A (Sigma, St. Louis, Mo.) supplemented with 10% FBS (Gibco, UK), 100 U/mL penicillin G, 0.25 μg/mL amphotericin B, 100 μg/mL streptomycin (Gibco, UK), 25 mM sodium bicarbonate (Merck, Germany) and 25 mM HEPES (Sigma, St. Louis, Mo.). For all cell lines the medium was changed every 2 days, and cells reached confluence 3-4 days after initial seeding. For subculturing, cells were dissociated with 0.25% trypsin-ethylenediaminetetraacetic acid (EDTA) (Sigma, St. Louis, Mo.), split 1:15 or 1:20 and subcultured in a 21-cm^2 growth area (Sarstedt, Germany).
(§2) Total RNA was isolated and purified using the SV Total RNA Isolation System (Promega, USA) according to manufacturer's instructions. RNA quality and concentration were verified in the NanoDrop ND1000 Spectrophotometer (Thermo Scientific, USA), and RNA integrity and genomic DNA contamination were evaluated by agarose gel electrophoresis. Total RNA (1 μg) was converted into cDNA using the Maxima Scientific First Strand cDNA Synthesis Kit for RT-qPCR (Thermo Scientific, USA), according to instructions. The following protocol was used: 1st step, 10 min at 25° C.; 2nd step, 15 min at 50° C.; 3rd step, 5 min at 85° C. cDNA was used for qPCR analysis using Maxima SYBR Green qPCR Master Mix (Thermo Scientific, USA) in the StepOnePlus instrument (Applied Biosystems, USA). QuantiTect Primer Assay for LAT1 and ASCT2 and for the endogenous control gene GAPDH (Quiagen, Germany) were used. The qPCR reaction was performed in 96-well PCR plates (Sarstedt, Germany) as follows: one cycle of 10 min at 95° C., followed by 40 PCR cycles at 95° C. 15 s and 60° C. 60 s. […] No template controls were always evaluated for each target gene. Quantification cycle (Cq) values were generated automatically by the StepOnePlus 2.3 Software and the ratio of the target gene was expressed in comparison to the endogenous control gene GAPDH.
(§3) Cells were plated in 24-well (Sarstedt, Germany) or 6-well plates (Sarstedt, Germany) or 96-well plates with black walls clear bottom (BD Biosciences, USA) and incubated 24 h under normal growth conditions. siRNAs against ASCT2 and transfection agent were diluted at desired concentrations and mixed according to transfection agent manufacturer's instructions. The mixture was incubated 20 min at RT for siRNA-complex formation, after which it was added to the cells and incubated at 37° C., 5% CO2. After the incubation period, serum and antibiotic was restored and cells were further incubated at normal conditions for the desired time points until evaluation of ASCT2 activity or ASCT2 expression (immunoblotting and RT-qPCR).

ASCT2 [2] = experiment: ASCT2 activity: [^14C]-L-alanine uptake in SK-HEP-1 cells after ASCT2 gene silencing; type: cell-based, human; settings: ASCT2 siRNA; general statement, conditions not given
Protocol: (§4) Cells were plated in 24-well plates (Sarstedt, Germany) and grown until confluence was reached. On the day of the experiment, Cell culture medium was aspirated and cells were preincubated for 15 min in Hanks' medium (ChCl 140 mM, KCl 5 mM, MgSO4.7H2O 0.8 mM, K2HPO4 0.33 mM, KH2PO4 0.44 mM, MgCl2.6H2O 1 mM, CaCl2) 0.025 mM, Tris-HCl 9.75 mM, pH 7.4). Uptake was initiated by the addition of Hanks' medium with 0.25 μM [^14C]-L-alanine in the absence and in the presence of 3 mM unlabeled L-alanin. During preincubation and incubation cells were continuously shaken and maintained at 37° C. Uptake was terminated after 1 min by rapid removal of uptake solution by means of a vacuum pump connected to a Pasteur pipette, followed by a rapid wash with Hanks' medium. Subsequently, cells were solubilized in 0.1% vol/vol Triton X-100 (dissolved in 5 mM Tris-HCl, pH 7.4), and radioactivity was measured by liquid scintillation counting.
as §3

LAT1 = LAT1 activity: [^14C]-L-leucine uptake in fibrosarcoma HT-1080 cells after LAT1 gene silencing; type: cell-based, human; settings: 5 nM siRNA, treatment 6 h, at 48 h, 0.4% Lipofectamine 2000, FIG. 8A
Protocol: as §4, with “experiment, cell” for “experiment, Cell”, “medium (NaCl” for “medium (ChCl”, “by” for “by the”, “μM [^14C]-L-leucine” for “μM [^14C]-L-alanine”, “unlabeled L-leucine.” for “unlabeled L-alanin.”
as §3, with “LAT1” for “ASCT2”

LAT1 mRNA = experiment: LAT1 gene expression (RT-qPCR) after LAT1 gene silencing in human colon cancer HTC-116 cells; type: cell-based; settings: treatment 6 h
Protocol: as §1, §2
as §3, with “LAT1” for “ASCT2”

[3] = test system: human colon cancer HTC-116 cells; experiment: Cell proliferation assay (calcein-AM) in human colon cancer HTC-116 cells; type: cell-based; settings: for cell proliferation / proliferation: treatment 6 h; for cell proliferation: 72 h exposure; for proliferation: at 72 h, 0.17% Lipofectamine 2000 or 0.1% Injectin, FIGS. 19B and 20B
Protocol: as §1
Cell proliferation was measured using calcein-AM (Thermo Fisher Scientific, USA). The membrane permeant calcein-AM, a nonfluorescent dye, is taken up and converted by intracellular esterases to membrane impermeant calcein, which emits green fluorescence. Cells were plated in 96-well plates with black walls clear bottom (BD Biosciences, USA) and incubated 24 h under normal growth conditions. Cells were incubated with test items at 37° C., 5% C02. After the incubation period, serum and antibiotic was restored and cells were further incubated at normal conditions during 72 h. After treatment with test substances or vehicle, cells were washed twice with Hanks' medium and loaded with 2 μM calcein-AM in Hanks' medium, at 37° C. for 30 min. Fluorescence was measured at 485 nm excitation and 530 nm emission wavelengths in a microplate spectrofluorometer (Gemini EM, Molecular Devices). Nine consecutive fluorescence measurements are performed per well, to allow fluorescence readings in the whole area of the well, which was then considered for the calculation of mean fluorescence per well. To determine minimum staining for calcein (calceinmin), eight wells were treated with ethanol 30 min before calcein-AM addition. The percent cell number is calculated as [(calceinsample)/(calceincontrol)]×100.

ASCT2 [4] = experiment: ASCT2 activity: [^14C]-L-alanine uptake in fibrosarcoma HT-1080 cells after ASCT2 gene silencing; type: cell-based, human; settings: fibrosarcoma HT-1080 cells; 5 nM siRNA; treatment 6 h; at 48 h; 0.4% Lipofectamine 2000; FIG. 8B
Protocol: as §4, §3

ASCT2 mRNA [5] = experiment: ASCT2 gene expression (RT-qPCR) after ASCT2 gene silencing in human colon cancer HTC-116 cells; type: cell-based; settings: treatment 6 h
Protocol: as §1, §2, §3

[6] = 5 or 25 nM siRNA, at 24 h or 48 h, 0.5% Lipofectamine 2000, FIGS. 9A and 9C
[7] = 72 h, 0.17% Lipofectamine 2000 or 0.1% Injectin, FIG. 19A
[8] = 5 or 25 nM siRNA, at 24 h or 48 h, 0.5% Lipofectamine 2000, FIGS. 9B and 9C
[9] = 72 h, 0.17% Lipofectamine 2000 or 0.1% Injectin, FIG. 20A

Row | Substance | ASCT2 mRNA relative abundance (ASCT2 mRNA [1]) | inhibiting sodium-independent [^14C]-L-leucine transport (ASCT2 [2]) | [^14C]-L-leucine (0.25 μM) uptake at initial rate of uptake (1 min) (LAT1) | LAT1 mRNA relative abundance (LAT1 mRNA; [6]) | LAT1 mRNA relative abundance (LAT1 mRNA; [7]) | cell proliferation ([3]; 0.1% Injectin, FIG. 14) | proliferation [3] | [^14C]-L-alanine (0.25 μM) uptake at initial rate of uptake (1 min) (ASCT2 [4]) | ASCT2 mRNA relative abundance (ASCT2 mRNA [5]; [8]) | ASCT2 mRNA relative abundance (ASCT2 mRNA [5]; [9]) | further results
1 | 278 (TGCCACGGTCGCCTCTGAGAA; chemistry not given here) [compound 278] | decreased | particularly effective | – | – | – | – | – | – | – | – | Effect on ASCT2 mRNA relative abundance compared with SEQ ID NO: 267 (ASCT2 mRNA [1]; SK-HEP-1 cells, 10 nM, p<0.05): significantly greater
2 | 225 (AATAATGGCGTGGCCAAGCAC; chemistry not given here) [compound 225] | decreased | particularly effective | – | – | – | – | – | – | – | – | –
3 | 237 (AATTACGTGGACCGTACGGAG; chemistry not given here) [compound 237] | decreased | particularly effective | – | – | – | – | – | – | – | – | –
4 | 61/165/396 (sense CGUGAACUGCUACAGCGUGAA; antisense UUCACUCUGUAGCAGUUCACG; chemistry not given here) | – | – | decreased | decreased | significantly decreased | decreased | significantly decreased | – | – | – | –
5 | 61/391/392 (chain 1 CGUGAACUGCUACAGCGUGAATT; chain 2 UUCACUCUGUAGCAGUUCACGTT; siRNA; sugars by position and backbone not given here; further chemistry not fully specified) | – | – | decreased | decreased | significantly decreased | decreased | significantly decreased | – | – | – | Effect of 5-fluoruracil upon proliferation in combination with the siRNA ([3]; 5-FU 10 μM, siRNA 25 nM, 72 h, 0.037% Injectin, FIG. 17A): not
6 | 267/356/402 (sense CCGGUCCUGUACCGUCCUCAA; antisense UUGAGGACGGUACAGGACCGG; chemistry not given here) | – | – | – | – | – | decreased | significantly decreased | decreased | decreased | significantly decreased | –
7 | 58/162/411 (sense CUUCGCCACCUACCUGCUCAA; antisense UUGAGCAGGUAGGUGGCGAAG; chemistry not given here) | – | – | decreased | decreased | significantly decreased | decreased | significantly decreased | – | – | – | –
8 | 267 (CCGGTCCTGTACCGTCCTCAA; chemistry not given here) [compound 267] | decreased | particularly effective | – | – | – | – | – | – | – | – | –
9 | 278/367/408 (sense UGCCACGGUCGCCUCUGAGAA; antisense UUCUCAGAGGCGACCGUGGCA; chemistry not given here) | – | – | – | – | – | decreased | significantly decreased | decreased | decreased | significantly decreased | –
10 | 267/397/398 (sense CCGGUCCUGUACCGUCCUCAATT; antisense UUGAGGACGGUACAGGACCGGTT; siRNA; sugars by position and backbone not given here; further chemistry not fully specified) | – | – | – | – | – | decreased | significantly decreased | decreased | decreased | significantly decreased | Effect on cell proliferation compared with SEQ ID NO: 267/356/402 ([3]; 72 h, 0.1% Injectin, p<0.05): significantly greater; Effect of siRNA-LAT1 SEQ ID NO: 58/387/388 upon proliferation in combination with the siRNA-ASCT2 ([3]; 72 h, siRNA-ASCT2 at non-efficacious conditions (0.037% Injectin), FIG. 18): enhanced; cell proliferation ([3]; increasing Injectin (0.037% to 0.15%), FIG. 15): decreased
